What was measured:
Type in all cases: cell-based, Diaphorina citri
Conditions in all cases: Table 1; odor diluted to 1%, 50 μL in cartridge
[1] = system: neuron 2B (rhinarial plate on flagellomere 2); assay: single-sensillum electrophysiology, odor response of neuron 2B
[2] = system: neuron 4A (rhinarial plate on flagellomere 4); assay: single-sensillum electrophysiology, odor response of neuron 4A
[3] = system: neuron 2C (rhinarial plate on flagellomere 2); assay: single-sensillum electrophysiology, odor response of neuron 2C
[4] = system: neuron 7B (rhinarial plate on flagellomere 7)
[5] = system: neuron 6A (rhinarial plate on flagellomere 6); assay: single-sensillum electrophysiology, odor response of neuron 6A
[6] = system: neuron 4B (rhinarial plate on flagellomere 4)
[7] = system: neuron 6C (rhinarial plate on flagellomere 6); assay: single-sensillum electrophysiology, odor response of neuron 6C
[8] = system: neuron 2A (rhinarial plate on flagellomere 2); assay: single-sensillum electrophysiology, odor response of neuron 2A; further: key: 0, no response; +, >50 spikes/second; ++, >100 spikes/second; +++, >150 spikes/second
[9] = system: neuron 7C (rhinarial plate on flagellomere 7); assay: single-sensillum electrophysiology, odor response of neuron 7C
[10] = system: neuron 6B (rhinarial plate on flagellomere 6); assay: single-sensillum electrophysiology, odor response of neuron 6B
[11] = system: neuron 7A (rhinarial plate on flagellomere 7); assay: single-sensillum electrophysiology, odor response of neuron 7A; further: key: 0, no response; +, >50 spikes/second; ++, >100 spikes/second; +++, >150 spikes/second
[12] = system: neuron 4C (rhinarial plate on flagellomere 4); assay: single-sensillum electrophysiology, odor response of neuron 4C

Row | SMILES | odor response (frequency of action potentials during stimulus minus baseline), 2B [1] | odor response (frequency of action potentials during stimulus minus baseline), 4A [2] | odor response (frequency of action potentials during stimulus minus baseline), 2C [3] | odor response (frequency of action potentials during stimulus minus baseline), 7B [4] | odor response (frequency of action potentials during stimulus minus baseline), 6A [5] | odor response (frequency of action potentials during stimulus minus baseline), 4B [6] | odor response (frequency of action potentials during stimulus minus baseline), 6C [7] | odor response (frequency of action potentials during stimulus minus baseline), 2A [8] | odor response (frequency of action potentials during stimulus minus baseline), 7C [9] | odor response (frequency of action potentials during stimulus minus baseline), 6B [10] | odor response (frequency of action potentials during stimulus minus baseline), 7A [11] | odor response (frequency of action potentials during stimulus minus baseline), 4C [12]
1 | C=CC(=C)CCC=C(C)C [myrcene] | 0 | 0 | ++ (++, >100 spikes/second) | 0 | 0 | + (+, >50 spikes/second) | 0 | 0 | 0 | + (+, >50 spikes/second) | 0 | 0
2 | Cc1ccc(C(C)C)cc1 [p-cymene] | 0 | 0 | 0 | 0 | 0 | +++ (+++, >150 spikes/second) | 0 | 0 | 0 | ++ (++, >100 spikes/second) | 0 | 0
3 | CCCCCCCCCC=O [decanal] | 0 | 0 | 0 | 0 | 0 | +++ (+++, >150 spikes/second) | 0 | 0 | ++ (++, >100 spikes/second) | ++ (++, >100 spikes/second) | 0 | 0
4 | CCCC(C)=O [2-pentanone] | 0 | 0 | 0 | 0 | 0 | + (+, >50 spikes/second) | 0 | 0 | 0 | + (+, >50 spikes/second) | 0 | 0
5 | C=C/C(C)=C/CC=C(C)C [E-β-Ocimene] | 0 | 0 | ++ (++, >100 spikes/second) | 0 | 0 | 0 | 0 | 0 | 0 | 0 | 0 | 0
